Where two headings read alike, the source gives them in different places.

For orientation: IC50 means the midpoint of a concentration-inhibition curve. What is called EC50 is the concentration giving half of the maximal effect.

The target in one test is T1, Recombinant human HDAC1 (Homo sapiens, UniProt Q13547).
T1 construct: FLAG (C); made in house
Nature of the test: Human HDAC enzyme inhibitor Fluor-de-Lys assay, HDAC1. It is filed as biochemical. The procedure, abridged: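 Fluor-de-Lys format at room temperature (23° C.): compounds titrated 10-point, 1:3, preincubated with HDAC before substrate addition; HDAC1 run at 0.3 nM enzyme with 20 μM BML-KI104. Developer with excess HDAC inhibitor ends the reaction, and trypsin-liberated AMC fluorescence is the read-out.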

In test [1] the target is T2, Recombinant human HDAC3/SMRT heterodimer (Homo sapiens, UniProt O15379).
T2 construct: FLAG (C); made in house
Nature of the test: Human HDAC enzyme inhibitor Fluor-de-Lys assay, HDAC3/SMRT. The format is biochemical.

The next test concerns KARN cells (Jurkat 2C4). Put plainly: cells. It is filed as cell-based. The following applies: Homo sapiens, Jurkat. The procedure, abridged:
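Luminescence (Steady-Glo, 10 min, room temperature) measured next day in KARN Jurkat 2C4 cells given compounds at up to 40 μM final with 0.4% DMSO. Percent activation normalised to DMSO (0%) and 2 μM SAHA (100%), fitted by 4-parameter curve.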

Setting [2] is: read-out: Karn EC50 (nM) 0.1% NHS, 0.1% normal human serum.
Setting [3] is: read-out: Karn EC50 (nM) 5% NHS, 5% normal human serum.
[4] abbreviates: recombinant human HDAC1, Fluor-de-Lys assay.
Setting [5] is: recombinant human HDAC3/SMRT, Fluor-de-Lys assay.
Where [6] appears, read: read-out: Karn EC50 (nM) 0.1% NHS, 0.1% normal human serum, luciferase induction, 100% = 2 μM SAHA.
[7] abbreviates: read-out: Karn EC50 (nM) 5% NHS, 5% normal human serum, luciferase induction, 100% = 2 μM SAHA.

T2 sequence (O15379 whole entry): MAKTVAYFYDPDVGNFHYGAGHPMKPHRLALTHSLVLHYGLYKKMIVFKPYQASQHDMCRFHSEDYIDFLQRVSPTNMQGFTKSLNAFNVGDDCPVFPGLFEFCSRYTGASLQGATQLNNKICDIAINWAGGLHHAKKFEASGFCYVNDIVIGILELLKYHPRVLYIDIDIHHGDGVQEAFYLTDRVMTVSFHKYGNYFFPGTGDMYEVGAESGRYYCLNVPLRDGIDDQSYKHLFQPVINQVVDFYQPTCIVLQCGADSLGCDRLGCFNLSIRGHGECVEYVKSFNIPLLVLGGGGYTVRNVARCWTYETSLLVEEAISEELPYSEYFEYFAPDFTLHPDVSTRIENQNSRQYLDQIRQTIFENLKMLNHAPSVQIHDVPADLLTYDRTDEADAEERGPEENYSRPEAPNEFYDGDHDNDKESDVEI
T2 sequence (Q9Y618 1-899 partner limits assumed): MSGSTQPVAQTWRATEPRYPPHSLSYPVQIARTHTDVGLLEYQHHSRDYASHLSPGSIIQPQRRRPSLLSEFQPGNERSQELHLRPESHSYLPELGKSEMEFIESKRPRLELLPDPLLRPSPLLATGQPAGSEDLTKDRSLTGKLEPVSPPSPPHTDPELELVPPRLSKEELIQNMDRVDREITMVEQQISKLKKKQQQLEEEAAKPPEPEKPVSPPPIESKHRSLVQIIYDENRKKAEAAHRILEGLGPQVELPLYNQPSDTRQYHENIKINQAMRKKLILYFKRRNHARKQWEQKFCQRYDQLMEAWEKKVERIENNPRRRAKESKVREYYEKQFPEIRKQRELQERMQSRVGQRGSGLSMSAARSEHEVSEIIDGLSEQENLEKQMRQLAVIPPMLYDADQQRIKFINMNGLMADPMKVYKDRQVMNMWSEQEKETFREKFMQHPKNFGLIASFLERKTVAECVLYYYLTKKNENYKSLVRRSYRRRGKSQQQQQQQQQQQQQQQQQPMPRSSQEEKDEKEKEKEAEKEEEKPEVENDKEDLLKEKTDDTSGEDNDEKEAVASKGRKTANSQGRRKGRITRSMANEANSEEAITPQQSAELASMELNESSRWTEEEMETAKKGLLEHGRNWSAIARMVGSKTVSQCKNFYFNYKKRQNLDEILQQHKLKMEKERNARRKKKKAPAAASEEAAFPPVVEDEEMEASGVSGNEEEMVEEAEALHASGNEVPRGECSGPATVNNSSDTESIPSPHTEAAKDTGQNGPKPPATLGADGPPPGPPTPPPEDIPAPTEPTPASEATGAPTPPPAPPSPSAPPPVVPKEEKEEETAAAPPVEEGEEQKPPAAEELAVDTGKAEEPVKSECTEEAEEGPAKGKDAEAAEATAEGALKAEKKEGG
T1 sequence (Q13547 whole entry): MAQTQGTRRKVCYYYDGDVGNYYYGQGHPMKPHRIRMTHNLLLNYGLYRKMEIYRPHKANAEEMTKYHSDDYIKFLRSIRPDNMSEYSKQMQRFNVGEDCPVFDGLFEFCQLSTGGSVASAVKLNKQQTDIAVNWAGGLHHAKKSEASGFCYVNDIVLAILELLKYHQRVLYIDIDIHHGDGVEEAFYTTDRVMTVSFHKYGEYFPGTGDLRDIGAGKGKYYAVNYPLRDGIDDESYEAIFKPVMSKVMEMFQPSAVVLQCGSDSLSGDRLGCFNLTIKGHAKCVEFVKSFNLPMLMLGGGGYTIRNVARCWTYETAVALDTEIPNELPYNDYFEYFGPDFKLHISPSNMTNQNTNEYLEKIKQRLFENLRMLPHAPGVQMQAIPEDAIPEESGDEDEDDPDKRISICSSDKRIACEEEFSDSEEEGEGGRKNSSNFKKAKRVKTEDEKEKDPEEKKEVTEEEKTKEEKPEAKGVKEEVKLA

`CCC(=O)CCCCC[C@H](NC(=O)[C@H]1CC12CCN(CC)CC2)c1ncc(-c2ccc(-n3cccn3)cc2)o1` [Compound 95]: the 50% inhibitory concentration (IC50) at Recombinant human HDAC1 was 5.26 nM; in test [1], 3.95 nM. In addition, the concentration giving a half-maximal response (EC50) in the test on KARN cells (Jurkat 2C4) (setting [2]) was determined as 522 nM; in the test with KARN cells (Jurkat 2C4) (setting [3]), 747 nM.
As for `CCC(=O)CCCCC[C@H](NC(=O)[C@H]1CC12CCN(C(C)C)CC2)c1ncc(-c2ccc3c(ccc(=O)n3C)c2)o1` [Compound 96], the 50% inhibitory concentration (IC50) is 6.9 nM on Recombinant human HDAC1 and 9.9 nM in test [1]. The half-maximal effective concentration (EC50) in the test with KARN cells (Jurkat 2C4) (setting [2]) is 1370 nM; with KARN cells (Jurkat 2C4) (setting [3]) it was 1510 nM.
Take `CCC(=O)CCCCC[C@H](NC(=O)[C@H]1CC12CCN(CC)CC2)c1ncc(-c2ccc3c(ccc(=O)n3C)c2)o1` [Compound 97]: the half-inhibitory concentration (IC50) on Recombinant human HDAC1 amounted to 6.52 nM; in test [1], 4.38 nM. Also, the figures for the concentration giving a half-maximal response (EC50) with KARN cells (Jurkat 2C4) (setting [2]) and with KARN cells (Jurkat 2C4) (setting [3]) were 563 nM and 660 nM, respectively.
As to `CCC(=O)CCCCC[C@H](NC(=O)[C@H]1CC12CCN(C(C)C)CC2)c1ncc(-c2ccc3nc(C4CC4)ccc3c2)[nH]1` [Compound 100], the IC50 (on Recombinant human HDAC1; in test [1]) was under 1.5 nM in each case. In addition, the results for the EC50 in the test with KARN cells (Jurkat 2C4) (setting [2]) and in the test with KARN cells (Jurkat 2C4) (setting [3]) were 68 nM and 64 nM, respectively.
On to `CCC(=O)CCCCC[C@H](NC(=O)C1=NOC2(CCN(C)CC2)C1)c1ncc(-c2ccc(-c3cccnc3)cc2OC)o1` [Compound 222, N-{(1S)-1-[5-(2-methoxy-4-pyridin-3-ylphenyl)-1,3-oxazol-2-yl]-7-oxononyl}-8-methyl-1-oxa-2,8-diazaspiro[4.5]dec-2-ene-3-carboxamide], for which the 50% inhibitory concentration (IC50) worked out at 1.61 nM at Recombinant human HDAC1 (setting [4]) and 4.67 nM in test [1] (setting [5]). The concentration for a half-maximal effect (EC50) in the test with KARN cells (Jurkat 2C4) (setting [6]) was determined as 298 nM; in the test with KARN cells (Jurkat 2C4) (setting [7]) it was 364 nM.
Turning to `CCC(=O)CCCCC[C@H](NC(=O)C1=NOC2(CCN(C)CC2)C1)c1ncc(-c2cc3cccnc3cc2OC)o1` [Compound 223], the IC50 was 1.54 nM on Recombinant human HDAC1 (setting [4]) and 2.06 nM in test [1] (setting [5]). Moreover, the EC50 with KARN cells (Jurkat 2C4) (setting [6]) amounted to 272 nM; in the test on KARN cells (Jurkat 2C4) (setting [7]), 559 nM.
Turning to `CCC(=O)CCCCC[C@H](N)c1ncc(-c2cc3ccc(=O)n(C)c3cc2OC)o1` [Compound 224], the results for the IC50 (at Recombinant human HDAC1 (setting [4]); in test [1] (setting [5])) were 38.7 nM and 92.1 nM, respectively. The values for the concentration giving a half-maximal response (EC50) in the test on KARN cells (Jurkat 2C4) (setting [6]) and with KARN cells (Jurkat 2C4) (setting [7]) were 5000 nM and 6970 nM, respectively.
In the same order, the values of `CCC(=O)CCCCC[C@H](NC(=O)C1=NOC2(CCN(CC3CC3)CC2)C1)c1ncc(-c2cc3ccc(C)nc3cc2OC)o1` [Compound 225] are 0.6 nM, 1.14 nM, 217 nM and 247 nM.
As to `CCC(=O)CCCCC[C@H](NC(=O)[C@H]1CC12CCN(CC1CC1)CC2)c1ncc(-c2cc3ccc(C)nc3cc2F)[nH]1` [Compound 228], the figures for the IC50 (on Recombinant human HDAC1 (setting [4]); in test [1] (setting [5])) were 0.12 nM and 0.19 nM, respectively. For the same compound, the EC50 in the test with KARN cells (Jurkat 2C4) (setting [6]) and in the test with KARN cells (Jurkat 2C4) (setting [7]) was 22 nM each time.
`CCC(=O)CCCCC[C@H](NC(=O)[C@H]1CC12CCN(CC1CC1)CC2)c1ncc(-c2cc3ccn(C)c(=O)c3cc2OC)o1` [Compound 229]: the values for the IC50 (at Recombinant human HDAC1 (setting [4]); in test [1] (setting [5])) were 0.09 nM and 0.21 nM, respectively. The EC50 in the test on KARN cells (Jurkat 2C4) (setting [6]) was 31 nM; with KARN cells (Jurkat 2C4) (setting [7]), 29 nM.
In the same order, the values of `CCC(=O)CCCCC[C@H](NC(=O)C1=NOC2(CCN(C)CC2)C1)c1ncc(-c2cc3ccc(C)nc3cc2F)[nH]1` [Compound 232] are 1.33 nM, 4.47 nM, 144 nM and 248 nM.
Take `CCC(=O)CCCCC[C@H](NC(=O)C1=NOC2(CCN(CC)CC2)C1)c1ncc(-c2cc3ccc(C)nc3cc2F)[nH]1` [Compound 233]: the values for the IC50 (on Recombinant human HDAC1 (setting [4]); in test [1] (setting [5])) were 3.59 nM and 8.8 nM, respectively. The half-maximal effective concentration (EC50) stood at 166 nM with KARN cells (Jurkat 2C4) (setting [6]) and 230 nM in the test with KARN cells (Jurkat 2C4) (setting [7]).
As to `CCC(=O)CCCCC[C@H](NC(=O)C1=NOC2(CCN(CC3CC3)CC2)C1)c1ncc(-c2cc3ccc(C)nc3cc2F)[nH]1` [Compound 234], the values for the IC50 (at Recombinant human HDAC1 (setting [4]); in test [1] (setting [5])) were 0.56 nM and 2.99 nM, respectively. The half-maximal effective concentration (EC50) in the test on KARN cells (Jurkat 2C4) (setting [6]) was found to be 160 nM; with KARN cells (Jurkat 2C4) (setting [7]), 262 nM.
With `CCC(=O)CCCCC[C@H](NC(=O)C1=NOC2(CCN(CC)CC2)C1)c1ncc(-c2cc3ccc(=O)n(C)c3cc2OC)o1` [Compound 235], the values for the IC50 (on Recombinant human HDAC1 (setting [4]); in test [1] (setting [5])) were 0.7 nM and 2.19 nM, respectively. For the same compound, the EC50 in the test with KARN cells (Jurkat 2C4) (setting [6]) is 249 nM; in the test with KARN cells (Jurkat 2C4) (setting [7]), 411 nM.
For `CCC(=O)CCCCC[C@H](NC(=O)C1=NOC2(CCN(CC3CC3)CC2)C1)c1ncc(-c2cc3ccc(=O)n(C)c3cc2OC)o1` [Compound 236], the IC50 on Recombinant human HDAC1 (setting [4]) came out at 0.36 nM; in test [1] (setting [5]), 1.07 nM. The concentration giving a half-maximal response (EC50) in the test on KARN cells (Jurkat 2C4) (setting [6]) was 442 nM; in the test on KARN cells (Jurkat 2C4) (setting [7]), 476 nM.
